The source of these data is US20240270762A1, “PENICILLIN-BINDING PROTEIN INHIBITORS” (priority 2021, published 2024).

pEC50, pIC50: −log10 of the molar value. In brackets after ≈: the same amount, converted by molar mass. Where two headings read alike, the source gives them in different places. A value given as a limit tells only on which side of the number the result lay.

The subject of test [1] is P. aeruginosa (ΔmexAB-oprM). In words: Broth microdilution MIC in iron-depleted CAMHB (IDM). The class given is cell-based. The following applies: Pseudomonas aeruginosa; iron-depleted CAMHB (IDM); […]; read-out: Minimum inhibitory concentration, P. aeruginosa ΔmexAB-oprM. A general note: Dilution methods test growth across graded concentrations, often in twofold steps.
Test [2] concerns the target T1, PBP3 from Pseudomonas aeruginosa (PAO1) (Pseudomonas aeruginosa, UniProt G3XD46).
T1 construct: made in house
Briefly: Bocillin-FL fluorescence polarization competition binding, P. aeruginosa PBP3. The note with it: Binding affinity to P. aeruginosa PBP3; fluorescence polarization competition binding assay using Bocillin-FL; read-out: P. aeruginosa PBP3 Potency. The essentials: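 Purified PBP was preincubated with inhibitor (E. coli PBP3 1.5 μM, 30 min; P. aeruginosa PBP3 0.75 μM, A. baumannii PBP3 0.2 μM and PBP1a 1 μM, 15 min), then Bocillin-FL (0.1 μM; 0.05 μM for PBP1a) added and FP read up to 60 min. EC50 = 50% loss of bound probe.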
A general note: Fluorescence polarisation rises when a labelled molecule tumbles more slowly, as on binding a larger partner.

In another test the target is T2, A. baumannii PBP1a (Acinetobacter baumannii, UniProt A0ABX6CK30).
T2 sequence (A0ABX6CK30 1-851): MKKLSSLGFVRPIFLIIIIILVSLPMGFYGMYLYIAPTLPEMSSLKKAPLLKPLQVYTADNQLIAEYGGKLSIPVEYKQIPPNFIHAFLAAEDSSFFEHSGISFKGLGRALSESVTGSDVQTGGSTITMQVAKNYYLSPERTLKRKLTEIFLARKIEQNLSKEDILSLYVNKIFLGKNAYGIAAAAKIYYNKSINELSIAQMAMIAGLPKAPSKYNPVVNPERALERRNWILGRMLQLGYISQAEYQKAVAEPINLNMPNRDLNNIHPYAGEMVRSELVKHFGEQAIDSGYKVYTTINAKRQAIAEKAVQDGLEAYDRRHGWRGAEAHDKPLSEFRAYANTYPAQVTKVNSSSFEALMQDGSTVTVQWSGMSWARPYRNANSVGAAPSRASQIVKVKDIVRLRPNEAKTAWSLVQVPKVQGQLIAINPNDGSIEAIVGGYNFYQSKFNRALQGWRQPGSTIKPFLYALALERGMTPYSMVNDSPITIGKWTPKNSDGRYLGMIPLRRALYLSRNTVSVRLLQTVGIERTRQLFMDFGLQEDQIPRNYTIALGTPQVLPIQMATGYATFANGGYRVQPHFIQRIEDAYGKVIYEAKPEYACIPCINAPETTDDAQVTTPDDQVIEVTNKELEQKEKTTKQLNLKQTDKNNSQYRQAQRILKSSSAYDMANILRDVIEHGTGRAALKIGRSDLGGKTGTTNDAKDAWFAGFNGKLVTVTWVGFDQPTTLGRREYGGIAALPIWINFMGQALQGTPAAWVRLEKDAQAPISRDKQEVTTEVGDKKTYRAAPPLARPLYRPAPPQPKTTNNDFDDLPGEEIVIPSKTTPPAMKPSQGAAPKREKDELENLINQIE
In words: Bocillin-FL competition binding via gel filtration, A. baumannii PBP1a. The essentials: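 Competitive equilibrium binding with Bocillin-FL reporter: PBP pre-incubated with inhibitor dilutions, Bocillin-FL added, 15 min incubation. Labelled enzyme isolated by size-exclusion spin plates, fluorescence measured; EC50 obtained by fitting bound fraction against inhibitor concentration with a Hill-coefficient model.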
A general note: In gel filtration, larger molecules generally elute earlier.

The subject of the next test is A. baumannii CDC-0045. Briefly: microbe, parasite or virus in culture. The class given is cell-based. The following applies: Acinetobacter baumannii, CDC0045, read-out: Minimum inhibitory concentration (MIC), A. baumannii CDC-0045.
The test system of test [3] is B. thailandensis ATCC 700388. Briefly: microbe, parasite or virus in culture. The note with it: Burkholderia thailandensis, ATCC700388, read-out: Minimum inhibitory concentration (MIC), B. thailandensis ATCC 700388. In kind it is cell-based.
Where [4] appears, read: competition binding assay using Bocillin-FL via gel filtration, read-out: A. baumannii PBP1a Potency.

T1 sequence (G3XD46 whole entry): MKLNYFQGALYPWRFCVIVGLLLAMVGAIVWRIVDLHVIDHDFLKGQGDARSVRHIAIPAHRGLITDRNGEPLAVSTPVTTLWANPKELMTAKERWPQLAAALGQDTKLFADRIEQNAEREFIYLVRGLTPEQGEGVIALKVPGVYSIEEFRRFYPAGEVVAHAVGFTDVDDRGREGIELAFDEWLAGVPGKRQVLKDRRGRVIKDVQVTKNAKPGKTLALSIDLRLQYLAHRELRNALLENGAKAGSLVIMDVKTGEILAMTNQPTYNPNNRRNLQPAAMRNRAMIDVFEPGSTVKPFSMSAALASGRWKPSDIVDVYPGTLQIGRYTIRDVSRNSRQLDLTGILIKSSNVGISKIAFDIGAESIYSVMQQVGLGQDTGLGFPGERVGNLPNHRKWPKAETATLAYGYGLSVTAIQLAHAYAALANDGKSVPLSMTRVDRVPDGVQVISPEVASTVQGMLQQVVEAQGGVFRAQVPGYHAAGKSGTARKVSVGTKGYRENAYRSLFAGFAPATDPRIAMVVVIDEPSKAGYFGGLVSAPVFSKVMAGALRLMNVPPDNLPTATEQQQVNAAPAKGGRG

Regarding `O=C(O)c1c(F)ccc2c1OB(O)[C@@H](NC(=O)C(NC(=O)N1CCN(C3CCN(C(=O)Nc4ccc(Cl)c(O)c4F)CC3)C(=O)C1=O)c1cc(F)c(O)c(O)c1Cl)C2` (stereo partly drawn) [Example 489, (3R)-3-(2-(4-(1-((4-chloro-2-fluoro-3-hydroxyphenyl)carbamoyl)piperidin-4-yl)-2,3-dioxopiperazine-1-carboxamido)-2-(2-chloro-5-fluoro-3,4-dihydroxyphenyl)acetamido)-7-fluoro-2-hydroxy-3,4-dihydro-2H-benzo[e][1,2]oxaborinine-8-carboxylic acid], the values for the MIC (in test [1]; in the test on A. baumannii CDC-0045; in test [3]) were below 1 µg/mL, below 1 µg/mL and 2 to 4 µg/mL (≈ 2.34 to 4.69 µM), respectively. In addition, the pIC50 in test [2] is above 5.00. For the same compound, on A. baumannii PBP1a (setting [4]), the pEC50 is above 5.00.

As to `O=C(O)c1c(F)ccc2c1OB(O)[C@@H](NC(=O)C(NC(=O)N1CCN(C3CCN(C(=O)Nc4cc(O)c(F)cc4Cl)CC3)C(=O)C1=O)c1cc(F)c(O)c(O)c1Cl)C2` (stereo partly drawn) [Example 490, (3R)-3-(2-(4-(1-((2-chloro-4-fluoro-5-hydroxyphenyl)carbamoyl)piperidin-4-yl)-2,3-dioxopiperazine-1-carboxamido)-2-(2-chloro-5-fluoro-3,4-dihydroxyphenyl)acetamido)-7-fluoro-2-hydroxy-3,4-dihydro-2H-benzo[e][1,2]oxaborinine-8-carboxylic acid], the MIC in test [1] is below 1 µg/mL; in the test with A. baumannii CDC-0045 it was below 1 µg/mL; in test [3], 32 to 64 µg/mL (≈ 37.5 to 75 µM). In test [2], the pIC50 was above 5.00. Also, the pEC50 at A. baumannii PBP1a (setting [4]) is above 5.00.

Regarding `O=C(O)c1c(F)ccc2c1OB(O)[C@@H](NC(=O)[C@H](NC(=O)N1CCN(C3CCN(C(=O)Nc4cc(F)c(F)c(O)c4F)CC3)C(=O)C1=O)c1cc(F)c(O)c(O)c1Cl)C2` [Example 491, (R)-3-((R)-2-(2-chloro-5-fluoro-3,4-dihydroxyphenyl)-2-(2,3-dioxo-4-(1-((2,4,5-trifluoro-3-hydroxyphenyl)carbamoyl)piperidin-4-yl)piperazine-1-carboxamido)acetamido)-7-fluoro-2-hydroxy-3,4-dihydro-2H-benzo[e][1,2]oxaborinine-8-carboxylic acid], the MIC in test [1] was below 1 µg/mL; with A. baumannii CDC-0045, below 1 µg/mL; in test [3], 2 to 4 µg/mL (≈ 2.34 to 4.68 µM). For the same compound, the pIC50 in test [2] is above 5.00. Besides, the pEC50 at A. baumannii PBP1a (setting [4]) is above 5.00.

On to `O=C(O)c1c(F)ccc2c1OB(O)[C@@H](NC(=O)[C@H](NC(=O)N1CCN(C3CCN(Cc4cccnc4)CC3)C1=O)c1cc(F)c(O)c(O)c1Cl)C2` [Example 492, (R)-3-((R)-2-(2-chloro-5-fluoro-3,4-dihydroxyphenyl)-2-(2-oxo-3-(1-(pyridin-3-ylmethyl)piperidin-4-yl)imidazolidine-1-carboxamido)acetamido)-7-fluoro-2-hydroxy-3,4-dihydro-2H-benzo[e][1,2]oxaborinine-8-carboxylic acid], for which the MIC (in test [1]; with A. baumannii CDC-0045; in test [3]) was below 1 µg/mL throughout. Further, in test [2], the pIC50 was above 5.00. Also, the pEC50 on A. baumannii PBP1a was above 5.00.

For `O=C(O)c1c(F)ccc2c1OB(O)[C@@H](NC(=O)[C@H](NC(=O)N1CCN(C3CCN(Cc4ccncc4)CC3)C1=O)c1cc(F)c(O)c(O)c1Cl)C2` [Example 493, (R)-3-((R)-2-(2-chloro-5-fluoro-3,4-dihydroxyphenyl)-2-(2-oxo-3-(1-(pyridin-4-ylmethyl)piperidin-4-yl)imidazolidine-1-carboxamido)acetamido)-7-fluoro-2-hydroxy-3,4-dihydro-2H-benzo[e][1,2]oxaborinine-8-carboxylic acid], the MIC (in test [1]; in the test on A. baumannii CDC-0045; in test [3]) was below 1 µg/mL throughout. For the same compound, the pIC50 in test [2] was above 5.00. The pEC50 on A. baumannii PBP1a (setting [4]) is above 5.00.

On to `O=C(O)c1c(F)ccc2c1OB(O)[C@@H](NC(=O)[C@H](NC(=O)N1CCN(C3CCN(C(=O)c4ccc(O)c(O)c4Cl)CC3)C1=O)c1ccc(P(=O)(O)O)cc1)C2` [Example 494, (R)-3-((R)-2-(3-(1-(2-chloro-3,4-dihydroxybenzoyl)piperidin-4-yl)-2-oxoimidazolidine-1-carboxamido)-2-(4-phosphonophenyl)acetamido)-7-fluoro-2-hydroxy-3,4-dihydro-2H-benzo[e][1,2]oxaborinine-8-carboxylic acid], for which the MIC (in test [1]; with A. baumannii CDC-0045; in test [3]) was below 1 µg/mL in each case. Also, in test [2], the pIC50 is above 5.00. Besides, at A. baumannii PBP1a (setting [4]), the pEC50 is 3.60 to 4.30.

On to `O=C(O)c1c(F)ccc2c1OB(O)[C@@H](NC(=O)[C@H](NC(=O)N1CCN(C3CCN(C(=O)c4cc(O)c(O)c(Cl)c4)CC3)C1=O)c1ccc(P(=O)(O)O)cc1)C2` [Example 496, (R)-3-((R)-2-(3-(1-(3-chloro-4,5-dihydroxybenzoyl)piperidin-4-yl)-2-oxoimidazolidine-1-carboxamido)-2-(4-phosphonophenyl)acetamido)-7-fluoro-2-hydroxy-3,4-dihydro-2H-benzo[e][1,2]oxaborinine-8-carboxylic acid], for which the MIC (in test [1]; with A. baumannii CDC-0045; in test [3]) was below 1 µg/mL each time. In addition, the pIC50 in test [2] is above 5.00. For the same compound, the pEC50 at A. baumannii PBP1a (setting [4]) is above 5.00.

`O=C(O)c1c(F)ccc2c1OB(O)[C@@H](NC(=O)[C@H](NC(=O)N1CCN(Cc3ccc(O)c(O)c3Cl)C(=O)C1=O)c1cc(F)c(P(=O)(O)O)c(F)c1)C2` [Example 502, (R)-3-((R)-2-(4-(2-chloro-3,4-dihydroxybenzyl)-2,3-dioxopiperazine-1-carboxamido)-2-(3,5-difluoro-4-phosphonophenyl)acetamido)-7-fluoro-2-hydroxy-3,4-dihydro-2H-benzo[e][1,2]oxaborinine-8-carboxylic acid]: the MIC (in test [1]; with A. baumannii CDC-0045; in test [3]) was below 1 µg/mL each time. Further, the pIC50 in test [2] is above 5.00. For the same compound, the pEC50 on A. baumannii PBP1a (setting [4]) is 4.30 to 5.00.

With `O=C(NCCN1CCN(C(=O)N[C@@H](C(=O)N[C@H]2Cc3ccc(F)c(C(=O)O)c3OB2O)c2ccc(P(=O)(O)O)cc2)C(=O)C1=O)c1ccc(O)c(O)c1Cl` [Example 503, (R)-3-((R)-2-(4-(2-(2-chloro-3,4-dihydroxybenzamido)ethyl)-2,3-dioxopiperazine-1-carboxamido)-2-(4-phosphonophenyl)acetamido)-7-fluoro-2-hydroxy-3,4-dihydro-2H-benzo[e][1,2]oxaborinine-8-carboxylic acid], the MIC was below 1 µg/mL in test [1], 2 to 4 µg/mL (≈ 2.53 to 5.05 µM) with A. baumannii CDC-0045 and below 1 µg/mL in test [3]. In addition, the pIC50 in test [2] is above 5.00. Besides, the pEC50 on A. baumannii PBP1a (setting [4]) is 4.30 to 5.00.

Consider `O=C(O)c1c(F)ccc2c1OB(O)[C@@H](NC(=O)C(NC(=O)N1CCN(S(=O)(=O)c3ccc(O)c(O)c3Cl)C1=O)c1ccc(P(=O)(O)O)cc1)C2` (stereo partly drawn) [Example 505, (3R)-3-(2-(3-((2-chloro-3,4-dihydroxyphenyl)sulfonyl)-2-oxoimidazolidine-1-carboxamido)-2-(4-phosphonophenyl)acetamido)-7-fluoro-2-hydroxy-3,4-dihydro-2H-benzo[e][1,2]oxaborinine-8-carboxylic acid], for which the MIC (in test [1]; in the test with A. baumannii CDC-0045; in test [3]) was below 1 µg/mL throughout. Moreover, the pIC50 in test [2] was above 5.00. Moreover, the pEC50 on A. baumannii PBP1a (setting [4]) was above 5.00.
